From the kinase profiling compilation of Christmann-Franck et al. (2016)

What was measured:
Experiment in all cases: radiometric filter-binding kinase assay, Kinase HotSpot
Conditions in all cases: compound 0.5 µM; ATP 10 µM
EPHB4 (human) = EPHB4 (human) (UniProt P54760)
WNK3 (human) = WNK3 (human) (UniProt Q9BYP7)
WEE1 (human) = WEE1 (human) (UniProt P30291)
STK38 (human) = STK38 (human) (UniProt Q15208)
PRKACG (human) = PRKACG (human) (UniProt P22612)
MAPK9 (human) = MAPK9 (human) (UniProt P45984)
LRRK2 (human) = LRRK2 (human) (UniProt Q5S007)
IKBKE (human) = IKBKE (human) (UniProt Q14164)
IRAK4 (human) = IRAK4 (human) (UniProt Q9NWZ3)
CAMK4 (human) = CAMK4 (human) (UniProt Q16566)
CSNK1G1 (human) = CSNK1G1 (human) (UniProt Q9HCP0)
PTK6 (human) = PTK6 (human) (UniProt Q13882)
TSSK1B (human) = TSSK1B (human) (UniProt Q9BXA7)
ULK3 (human) = ULK3 (human) (UniProt Q6PHR2)
EPHA7 (human) = EPHA7 (human) (UniProt Q15375)
CHEK1 (human) = CHEK1 (human) (UniProt O14757)
Sequence of CHEK1 (human) (O14757 whole entry, looked up): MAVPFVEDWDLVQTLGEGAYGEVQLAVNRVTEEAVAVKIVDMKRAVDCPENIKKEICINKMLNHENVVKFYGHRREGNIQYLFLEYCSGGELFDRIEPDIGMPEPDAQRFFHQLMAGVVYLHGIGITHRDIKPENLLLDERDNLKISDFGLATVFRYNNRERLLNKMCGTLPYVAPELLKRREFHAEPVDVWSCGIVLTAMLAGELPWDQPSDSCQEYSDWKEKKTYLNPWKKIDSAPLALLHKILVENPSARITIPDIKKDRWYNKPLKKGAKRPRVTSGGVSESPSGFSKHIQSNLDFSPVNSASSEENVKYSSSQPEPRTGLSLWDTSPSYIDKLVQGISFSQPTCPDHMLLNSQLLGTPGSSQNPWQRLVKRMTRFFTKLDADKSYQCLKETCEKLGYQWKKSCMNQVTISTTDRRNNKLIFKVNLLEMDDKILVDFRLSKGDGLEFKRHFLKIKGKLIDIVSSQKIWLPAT

NEK9 (human) = NEK9 (human) (UniProt Q8TD19)
Sequence of NEK9 (human) (Q8TD19 whole entry, looked up): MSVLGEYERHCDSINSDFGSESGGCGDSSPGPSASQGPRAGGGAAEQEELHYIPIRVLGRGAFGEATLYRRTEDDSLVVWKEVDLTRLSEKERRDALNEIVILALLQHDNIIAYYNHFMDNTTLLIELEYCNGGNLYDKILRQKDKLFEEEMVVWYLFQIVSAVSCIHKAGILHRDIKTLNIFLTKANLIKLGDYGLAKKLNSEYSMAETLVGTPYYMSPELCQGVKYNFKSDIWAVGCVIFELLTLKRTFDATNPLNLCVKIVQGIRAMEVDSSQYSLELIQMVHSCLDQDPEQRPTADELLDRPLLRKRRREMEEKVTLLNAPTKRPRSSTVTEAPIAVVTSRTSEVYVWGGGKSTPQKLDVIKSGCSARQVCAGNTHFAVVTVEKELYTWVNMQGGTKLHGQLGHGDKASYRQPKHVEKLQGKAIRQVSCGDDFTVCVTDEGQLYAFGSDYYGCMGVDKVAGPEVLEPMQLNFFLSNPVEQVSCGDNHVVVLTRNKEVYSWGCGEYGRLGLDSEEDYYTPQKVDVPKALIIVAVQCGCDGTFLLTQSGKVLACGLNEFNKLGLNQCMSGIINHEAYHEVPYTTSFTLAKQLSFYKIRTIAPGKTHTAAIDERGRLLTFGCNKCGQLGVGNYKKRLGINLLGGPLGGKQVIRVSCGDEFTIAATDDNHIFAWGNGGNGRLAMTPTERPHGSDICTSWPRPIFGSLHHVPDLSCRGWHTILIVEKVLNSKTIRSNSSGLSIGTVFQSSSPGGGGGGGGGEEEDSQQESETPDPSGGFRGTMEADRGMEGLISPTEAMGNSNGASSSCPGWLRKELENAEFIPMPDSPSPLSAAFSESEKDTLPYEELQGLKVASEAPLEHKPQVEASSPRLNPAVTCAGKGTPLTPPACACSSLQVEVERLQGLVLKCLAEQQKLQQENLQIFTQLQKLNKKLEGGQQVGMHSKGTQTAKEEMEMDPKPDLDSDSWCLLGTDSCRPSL

NTRK1 (human) = NTRK1 (human) (UniProt P04629)
STK16 (human) = STK16 (human) (UniProt O75716)
Sequence of STK16 (human) (O75716 whole entry, looked up): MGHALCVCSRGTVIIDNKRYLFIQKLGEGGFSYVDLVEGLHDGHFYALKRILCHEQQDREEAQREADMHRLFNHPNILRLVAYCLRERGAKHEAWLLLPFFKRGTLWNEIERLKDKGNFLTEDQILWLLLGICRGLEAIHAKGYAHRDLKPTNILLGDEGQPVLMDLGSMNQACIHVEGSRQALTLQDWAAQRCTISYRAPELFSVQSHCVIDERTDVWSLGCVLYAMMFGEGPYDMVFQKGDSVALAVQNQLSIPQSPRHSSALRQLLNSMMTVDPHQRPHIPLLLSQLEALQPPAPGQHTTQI

PHKG2 (human) = PHKG2 (human) (UniProt P15735)
PRKACA (human) = PRKACA (human) (UniProt P17612)
MYO3B (human) = MYO3B (human) (UniProt Q8WXR4)
[1] = tested on: MKNK1 (human), Q9BUB5 [T385D; 165-205 del]
PAK2 (human) = PAK2 (human) (UniProt Q13177)
CSF1R (human) = CSF1R (human) (UniProt P07333)
ULK2 (human) = ULK2 (human) (UniProt Q8IYT8)
PRKCE (human) = PRKCE (human) (UniProt Q02156)
EPHB3 (human) = EPHB3 (human) (UniProt P54753)
PRKD3 (human) = PRKD3 (human) (UniProt O94806)
Sequence of PRKD3 (human) (O94806 whole entry, looked up): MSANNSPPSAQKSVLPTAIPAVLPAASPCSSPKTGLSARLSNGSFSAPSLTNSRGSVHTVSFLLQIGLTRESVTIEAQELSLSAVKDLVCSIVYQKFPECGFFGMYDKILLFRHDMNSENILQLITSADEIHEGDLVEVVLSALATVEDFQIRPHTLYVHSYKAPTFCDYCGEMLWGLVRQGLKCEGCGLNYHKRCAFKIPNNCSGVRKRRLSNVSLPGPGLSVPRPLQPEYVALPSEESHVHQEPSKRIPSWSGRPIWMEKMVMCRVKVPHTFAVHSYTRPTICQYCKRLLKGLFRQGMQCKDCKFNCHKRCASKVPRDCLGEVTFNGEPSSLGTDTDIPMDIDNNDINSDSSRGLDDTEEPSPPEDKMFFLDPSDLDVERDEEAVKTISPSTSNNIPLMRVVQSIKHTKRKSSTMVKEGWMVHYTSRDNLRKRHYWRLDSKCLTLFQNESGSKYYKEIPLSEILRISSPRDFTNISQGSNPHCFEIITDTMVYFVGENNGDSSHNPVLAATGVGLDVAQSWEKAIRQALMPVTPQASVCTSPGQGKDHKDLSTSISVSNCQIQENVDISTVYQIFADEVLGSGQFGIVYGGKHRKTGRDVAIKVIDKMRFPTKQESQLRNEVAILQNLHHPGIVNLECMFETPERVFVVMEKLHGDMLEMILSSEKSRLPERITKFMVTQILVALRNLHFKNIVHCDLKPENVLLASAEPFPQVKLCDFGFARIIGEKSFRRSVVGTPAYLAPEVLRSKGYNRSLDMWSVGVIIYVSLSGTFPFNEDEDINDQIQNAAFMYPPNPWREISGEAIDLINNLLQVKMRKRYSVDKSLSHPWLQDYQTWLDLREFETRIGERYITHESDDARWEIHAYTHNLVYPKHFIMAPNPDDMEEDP

FLT3 (human) = FLT3 (human) (UniProt P36888)
PIM1 (human) = PIM1 (human) (UniProt P11309)
Sequence of PIM1 (human) (P11309 whole entry, looked up): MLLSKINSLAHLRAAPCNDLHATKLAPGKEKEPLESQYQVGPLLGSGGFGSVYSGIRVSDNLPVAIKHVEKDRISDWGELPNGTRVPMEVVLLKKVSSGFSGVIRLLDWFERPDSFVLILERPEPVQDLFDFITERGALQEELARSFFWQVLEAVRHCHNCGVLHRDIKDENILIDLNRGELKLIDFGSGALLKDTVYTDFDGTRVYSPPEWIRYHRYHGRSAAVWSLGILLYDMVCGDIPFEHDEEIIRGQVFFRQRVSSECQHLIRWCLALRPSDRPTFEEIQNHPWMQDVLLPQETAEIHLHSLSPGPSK

NEK1 (human) = NEK1 (human) (UniProt Q96PY6)
STK3 (human) = STK3 (human) (UniProt Q13188)
CDK9 CCNK (human) = CDK9 CCNK (human) (UniProt O75909+P50750)
LTK (human) = LTK (human) (UniProt P29376)
Sequence of LTK (human) (P29376 whole entry, looked up): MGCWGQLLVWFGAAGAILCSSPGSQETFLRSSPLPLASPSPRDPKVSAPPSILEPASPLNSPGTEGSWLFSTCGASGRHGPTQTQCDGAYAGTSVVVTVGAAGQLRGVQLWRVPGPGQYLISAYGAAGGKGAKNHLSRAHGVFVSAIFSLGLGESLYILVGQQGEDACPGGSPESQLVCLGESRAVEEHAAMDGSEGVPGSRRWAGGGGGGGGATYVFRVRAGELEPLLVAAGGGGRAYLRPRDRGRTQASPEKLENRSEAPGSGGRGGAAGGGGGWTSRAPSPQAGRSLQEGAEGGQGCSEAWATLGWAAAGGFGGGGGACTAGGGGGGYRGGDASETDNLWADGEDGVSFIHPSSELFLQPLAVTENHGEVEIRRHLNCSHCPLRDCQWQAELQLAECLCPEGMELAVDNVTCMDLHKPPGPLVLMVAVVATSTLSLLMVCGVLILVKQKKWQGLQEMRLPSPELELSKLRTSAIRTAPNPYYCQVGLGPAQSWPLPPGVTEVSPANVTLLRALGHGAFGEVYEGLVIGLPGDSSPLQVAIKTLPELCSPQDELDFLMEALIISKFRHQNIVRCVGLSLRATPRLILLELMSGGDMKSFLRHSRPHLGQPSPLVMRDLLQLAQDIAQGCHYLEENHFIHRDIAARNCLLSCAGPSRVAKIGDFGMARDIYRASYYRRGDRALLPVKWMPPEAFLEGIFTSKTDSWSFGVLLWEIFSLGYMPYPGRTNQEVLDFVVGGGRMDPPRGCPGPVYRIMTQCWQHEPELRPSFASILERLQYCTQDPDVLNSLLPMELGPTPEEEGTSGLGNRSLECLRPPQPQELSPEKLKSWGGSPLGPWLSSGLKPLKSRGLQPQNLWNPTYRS

CDK3 CCNE1 (human) = CDK3 CCNE1 (human) (UniProt Q00526+P24864)
AKT2 (human) = AKT2 (human) (UniProt P31751)
Sequence of AKT2 (human) (P31751 whole entry, looked up): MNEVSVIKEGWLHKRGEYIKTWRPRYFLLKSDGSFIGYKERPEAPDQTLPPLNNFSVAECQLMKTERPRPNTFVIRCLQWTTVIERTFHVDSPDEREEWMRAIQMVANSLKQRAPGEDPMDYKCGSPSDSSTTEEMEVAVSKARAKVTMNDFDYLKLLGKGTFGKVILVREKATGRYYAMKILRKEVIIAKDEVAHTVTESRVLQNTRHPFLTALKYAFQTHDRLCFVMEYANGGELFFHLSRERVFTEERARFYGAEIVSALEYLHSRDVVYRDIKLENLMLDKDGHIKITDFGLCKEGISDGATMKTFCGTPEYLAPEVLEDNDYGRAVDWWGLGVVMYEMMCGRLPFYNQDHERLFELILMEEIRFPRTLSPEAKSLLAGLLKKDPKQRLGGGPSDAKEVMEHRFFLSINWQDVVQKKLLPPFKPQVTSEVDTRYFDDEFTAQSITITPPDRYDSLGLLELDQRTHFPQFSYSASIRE

CDK4 CCND1 (human) = CDK4 CCND1 (human) (UniProt P24385+P11802)
PKN2 (human) = PKN2 (human) (UniProt Q16513)
EPHA8 (human) = EPHA8 (human) (UniProt P29322)
MAP3K7 TAB1 (human) = MAP3K7 TAB1 (human) (UniProt O43318+Q15750)

Sequence of WEE1 (human) (P30291 whole entry, looked up): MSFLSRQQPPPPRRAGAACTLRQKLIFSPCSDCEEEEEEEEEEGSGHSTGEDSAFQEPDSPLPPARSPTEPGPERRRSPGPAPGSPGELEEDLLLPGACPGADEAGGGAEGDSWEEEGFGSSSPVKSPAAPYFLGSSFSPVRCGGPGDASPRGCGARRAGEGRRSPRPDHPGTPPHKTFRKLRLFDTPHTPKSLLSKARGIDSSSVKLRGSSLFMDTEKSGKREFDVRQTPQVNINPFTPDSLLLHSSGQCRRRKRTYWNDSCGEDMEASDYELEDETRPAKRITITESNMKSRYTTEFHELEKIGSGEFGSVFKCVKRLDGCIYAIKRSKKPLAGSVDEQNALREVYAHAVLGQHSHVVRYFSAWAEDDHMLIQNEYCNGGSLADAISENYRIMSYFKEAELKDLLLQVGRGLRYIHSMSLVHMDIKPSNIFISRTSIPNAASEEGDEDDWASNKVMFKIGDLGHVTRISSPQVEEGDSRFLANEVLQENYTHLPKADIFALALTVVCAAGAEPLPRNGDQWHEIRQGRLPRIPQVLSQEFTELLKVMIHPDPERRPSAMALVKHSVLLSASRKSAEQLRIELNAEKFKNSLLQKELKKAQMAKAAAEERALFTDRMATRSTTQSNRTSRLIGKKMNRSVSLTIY

O=C1Nc2ccc(Br)cc2/C1=C\c1cc2c([nH]1)CCCC2
residual activity (EPHB4 (human)): 88.6% | residual activity (WNK3 (human)): 93.8% | residual activity (WEE1 (human)): 95.9% | residual activity (STK38 (human)): 80.1% | residual activity (PRKACG (human)): 98.1% | residual activity (MAPK9 (human)): 99.4% | residual activity (LRRK2 (human)): 7.03% | residual activity (IKBKE (human)): 89.5% | residual activity (IRAK4 (human)): 67.2% | residual activity (CAMK4 (human)): 97.5% | residual activity (CSNK1G1 (human)): 102% | residual activity (PTK6 (human)): 82.3% | residual activity (TSSK1B (human)): 36.1% | residual activity (ULK3 (human)): 55.5% | residual activity (EPHA7 (human)): 85.3% | residual activity (CHEK1 (human)): 81.8% | residual activity (NEK9 (human)): 85.6% | residual activity (NTRK1 (human)): 51.8% | residual activity (STK16 (human)): 94.3% | residual activity (PHKG2 (human)): 90.5% | residual activity (PRKACA (human)): 96.5% | residual activity (MYO3B (human)): 55.1% | residual activity [1]: 106% | residual activity (PAK2 (human)): 90% | residual activity (CSF1R (human)): 49.7% | residual activity (ULK2 (human)): 114% | residual activity (PRKCE (human)): 99.1% | residual activity (EPHB3 (human)): 99.7% | residual activity (PRKD3 (human)): 90.3% | residual activity (FLT3 (human)): 3.86% | residual activity (PIM1 (human)): 101% | residual activity (NEK1 (human)): 94.6% | residual activity (STK3 (human)): 60.7% | residual activity (CDK9 CCNK (human)): 96.7% | residual activity (LTK (human)): 70.6% | residual activity (CDK3 CCNE1 (human)): 93.2% | residual activity (AKT2 (human)): 90.3% | residual activity (CDK4 CCND1 (human)): 97.9% | residual activity (PKN2 (human)): 91.3% | residual activity (EPHA8 (human)): 94.5% | residual activity (MAP3K7 TAB1 (human)): 60.9%
